Data taken from US9822124B2, “Bicyclic heteroaromatic carboxamide compounds useful as Pim kinase inhibitors” (Incyte Corporation, priority 2014, dated 2017).

What was measured:
Format in all cases: biochemical
Pim-1 = Pim-1 (Homo sapiens (Human), UniProt P11309); assay: Pim-1 kinase assay (AlphaScreen, Biotin-labeled BAD peptide substrate); details: 1 mM ATP; read-out: Pim1 IC50
Protocol: (§1) Pim-1 and Pim-3 kinase assays—20 μL reactions were run in white 384 well polystyrene plates dotted with 0.8 μL compound/DMSO in the assay buffer (50 mM Tris, pH 7.5, 0.01% Tween-20, 5 mM MgCl2, 0.01% BSA, 5 mM DTT), containing 0.05 μM Biotin-labeled BAD peptide substrate (AnaSpec 62269), 1 mM ATP, and […] (Pim-1, Invitrogen PV3503) or […] (Pim-3, Millipore 14-738) enzyme for 1 h at 25° C. Reactions were stopped by addition of 10 μL STOP Buffer (150 mM Tris, pH=7.5, 150 mM NaCl, 75 mM EDTA, 0.01% Tween-20, 0.3% BSA) supplemented with Phospho-Bad (Ser112) Antibody (Cell Signaling 9291) diluted 666-fold, and Streptavidin donor beads (PerkinElmer 6760002) along with Protein-A acceptor beads (PerkinElmer 6760137) at 15 μg/mL each. Supplementation of the STOP buffer with beads and stopping the reactions were done under reduced light. Prior to the stopping reactions STOP buffer with beads was preincubated for 1 h in the dark at room temperature. After stopping the reactions, plates were incubated for 1 h in the dark at room temperature before reading on a PHERAstar FS plate reader (BMG Labtech) under reduced light.

Pim-2 = Pim-2 (Homo sapiens (Human), UniProt Q9P1W9); assay: Pim-2 kinase assay (TR-FRET, Fluorescein-labeled CREBtide peptide substrate); details: 1 mM ATP; read-out: Pim2 IC50
Pim-2, sequence (Q9P1W9 whole entry): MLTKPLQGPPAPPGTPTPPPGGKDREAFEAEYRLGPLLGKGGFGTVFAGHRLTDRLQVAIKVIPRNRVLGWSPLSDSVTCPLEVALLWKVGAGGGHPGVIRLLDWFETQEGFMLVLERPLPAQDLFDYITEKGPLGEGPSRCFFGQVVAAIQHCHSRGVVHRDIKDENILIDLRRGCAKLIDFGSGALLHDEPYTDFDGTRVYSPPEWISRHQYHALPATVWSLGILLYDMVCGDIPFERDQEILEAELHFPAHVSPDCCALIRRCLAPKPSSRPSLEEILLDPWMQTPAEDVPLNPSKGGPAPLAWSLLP
Protocol: Pim-2 kinase assay—20 μL reactions were run in white 384 well polystyrene plates dotted with 0.8 μL compound/DMSO in the assay buffer (50 mM Tris, pH 7.5, 0.01% Tween-20, 5 mM MgCl2, 0.01% BSA, 5 mM DTT), containing 0.05 μM Fluorescein-labeled CREBtide peptide substrate (Invitrogen PV3508), 1 mM ATP, and 1 nM enzyme (Invitrogen PV3649) for 2 h at 25° C. Reactions were stopped by addition of 10 μL TR-FRET Dilution Buffer (Invitrogen PV3574) with 30 mM EDTA and 1.5 nM LanthaScreen Tb-CREB pSer133 antibody (Invitrogen PV3566). After 30 min. incubation at room temperature, plates were read on a PHERAstar FS plate reader (BMG Labtech).

Pim-3 = Pim-3 (Homo sapiens (Human), UniProt Q86V86); assay: Pim-3 kinase assay (AlphaScreen, Biotin-labeled BAD peptide substrate); details: 1 mM ATP; read-out: Pim3 IC50
Protocol: as §1

Pim-1, sequence (P11309 whole entry): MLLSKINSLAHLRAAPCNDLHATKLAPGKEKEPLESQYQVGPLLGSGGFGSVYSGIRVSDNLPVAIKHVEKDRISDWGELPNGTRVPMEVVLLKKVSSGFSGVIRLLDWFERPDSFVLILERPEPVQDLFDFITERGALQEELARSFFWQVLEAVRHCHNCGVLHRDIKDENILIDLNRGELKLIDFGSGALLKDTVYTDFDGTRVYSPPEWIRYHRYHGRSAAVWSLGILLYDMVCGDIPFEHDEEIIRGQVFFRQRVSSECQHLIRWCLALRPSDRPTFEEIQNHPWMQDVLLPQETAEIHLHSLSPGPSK

SMILES	IC50 (Pim-1) [nM]	IC50 (Pim-2) [nM]	IC50 (Pim-3) [nM]
CC(C)c1coc2ccc(C(=O)Nc3cnccc3N3C[C@H](C)C[C@H](N)C3)nc12 [Example 18, N-(4-((3S,5R)-3-Amino-5-methylpiperidin-1-yl)pyridin-3-yl)-3-isopropylfuro[3,2-b]pyridine-5-carboxamide]	≤ 10	≤ 100	≤ 10
C[C@@H]1C[C@H](N)CN(c2ccncc2NC(=O)c2ccc3occ(-c4c(F)cccc4F)c3n2)C1 [Example 19, N-(4-((3S,5R)-3-Amino-5-methylpiperidin-1-yl)pyridin-3-yl)-3-(2,6-difluorophenyl)furo[3,2-b]pyridine-5-carboxamide]	≤ 10	≤ 100	≤ 10
CCc1coc2ccc(C(=O)Nc3cnccc3N3C[C@H](C)C[C@H](N)C3)nc12 [Example 20, N-(4-((3S,5R)-3-Amino-5-methylpiperidin-1-yl)pyridin-3-yl)-3-ethylfuro[3,2-b]pyridine-5-carboxamide]	≤ 10	≤ 100	≤ 10
C[C@@H]1C[C@H](N)CN(c2ccncc2NC(=O)c2ccc3occ(-c4ccccc4F)c3n2)C1 [Example 21, N-(4-((3S,5R)-3-Amino-5-methylpiperidin-1-yl)pyridin-3-yl)-3-(2-fluorophenyl)furo[3,2-b]pyridine-5-carboxamide]	≤ 10	≤ 100	≤ 10
COc1ccc(F)c(-c2coc3ccc(C(=O)Nc4cnccc4N4C[C@H](C)C[C@H](N)C4)nc23)c1F [Example 22, N-(4-((3S,5R)-3-Amino-5-methylpiperidin-1-yl)pyridin-3-yl)-3-(2,6-difluoro-3-methoxyphenyl)furo[3,2-b]pyridine-5-carboxamide]	≤ 10	≤ 100	≤ 10
COc1ccc(-c2coc3ccc(C(=O)Nc4cnccc4N4C[C@H](C)C[C@H](N)C4)nc23)cn1 [Example 23, N-(4-((3S,5R)-3-Amino-5-methylpiperidin-1-yl)pyridin-3-yl)-3-(6-methoxypyridin-3-yl)furo[3,2-b]pyridine-5-carboxamide]	≤ 10	1000 to 10000	10 to 50
C[C@@H]1C[C@H](N)CN(c2ccncc2NC(=O)c2ccc3occ(C4CCN(C)CC4)c3n2)C1 [Example 24, N-(4-((3S,5R)-3-Amino-5-methylpiperidin-1-yl)pyridin-3-yl)-3-(1-methylpiperidin-4-yl)furo[3,2-b]pyridine-5-carboxamide]	≤ 10	> 2000	> 40
C[C@@H]1C[C@H](N)CN(c2ccncc2NC(=O)c2ccc3occ(C4CCOCC4)c3n2)C1 [Example 25, N-(4-((3S,5R)-3-Amino-5-methylpiperidin-1-yl)pyridin-3-yl)-3-(tetrahydro-2H-pyran-4-yl)furo[3,2-b]pyridine-5-carboxamide]	≤ 10	100 to 1000	≤ 10
C[C@@H]1C[C@H](N)CN(c2ccncc2NC(=O)c2ccc3occ(-c4cncc(C#N)c4)c3n2)C1 [Example 26, N-(4-((3S,5R)-3-Amino-5-methylpiperidin-1-yl)pyridin-3-yl)-3-(5-cyanopyridin-3-yl)furo[3,2-b]pyridine-5-carboxamide]	≤ 10	> 2000	10 to 50
C[C@@H]1C[C@H](N)CN(c2ccncc2NC(=O)c2ccc3occ(-c4cc(F)nc(F)c4)c3n2)C1 [Example 27, N-(4-((3S,5R)-3-Amino-5-methylpiperidin-1-yl)pyridin-3-yl)-3-(2,6-difluoropyridin-4-yl)furo[3,2-b]pyridine-5-carboxamide]	10 to 50	> 2000	> 40
C[C@@H]1C[C@H](N)CN(c2ccncc2NC(=O)c2ccc3occ(-c4cnoc4)c3n2)C1 [Example 28, N-(4-((3S,5R)-3-Amino-5-methylpiperidin-1-yl)pyridin-3-yl)-3-(isoxazol-4-yl)furo[3,2-b]pyridine-5-carboxamide]	≤ 10	> 2000	10 to 50
C[C@@H]1C[C@H](N)CN(c2ccncc2NC(=O)c2ccc3occ(-c4cnn(C)c4)c3n2)C1 [Example 29, N-(4-((3S,5R)-3-Amino-5-methylpiperidin-1-yl)pyridin-3-yl)-3-(1-methyl-1H-pyrazol-4-yl)furo[3,2-b]pyridine-5-carboxamide]	≤ 10	1000 to 10000	10 to 50
C[C@@H]1C[C@H](N)CN(c2ccncc2NC(=O)c2ccc3occ(-c4cncnc4)c3n2)C1 [Example 30, N-(4-((3S,5R)-3-Amino-5-methylpiperidin-1-yl)pyridin-3-yl)-3-(pyrimidin-5-yl)furo[3,2-b]pyridine-5-carboxamide]	10 to 50	> 2000	> 40
COc1cncc(-c2coc3ccc(C(=O)Nc4cnccc4N4C[C@H](C)C[C@H](N)C4)nc23)c1 [Example 32, N-(4-((3S,5R)-3-Amino-5-methylpiperidin-1-yl)pyridin-3-yl)-3-(5-methoxypyridin-3-yl)furo[3,2-b]pyridine-5-carboxamide]	≤ 10	1000 to 10000	≤ 10
C[C@@H]1C[C@H](N)CN(c2ccncc2NC(=O)c2ccc3occ(C4=COCCC4)c3n2)C1 [Example 33, N-(4-((3S,5R)-3-Amino-5-methylpiperidin-1-yl)pyridin-3-yl)-3-(3,4-dihydro-2H-pyran-5-yl)furo[3,2-b]pyridine-5-carboxamide]	≤ 10	≤ 100	≤ 10
C[C@H]1CN(c2ccncc2NC(=O)c2ccc3occ(C4CC4)c3n2)C[C@@H](N)[C@@H]1O [Example 34, N-(4-((3R,4R,5S)-3-Amino-4-hydroxy-5-methylpiperidin-1-yl)pyridin-3-yl)-3-cyclopropylfuro[3,2-b]pyridine-5-carboxamide]	≤ 10	≤ 100	≤ 10
C[C@@H]1C[C@H](N)CN(c2ccncc2NC(=O)c2ccc3occ(C4CC4)c3n2)C1 [Example 35, N-(4-((3S,5R)-3-Amino-5-methylpiperidin-1-yl)pyridin-3-yl)-3-cyclopropylfuro[3,2-b]pyridine-5-carboxamide]	≤ 10	≤ 100	≤ 10
CC(C)c1coc2ccc(C(=O)Nc3cnccc3N3CCC[C@H](N)C3)nc12 [Example 36, (S)-N-(4-(3-Aminopiperidin-1-yl)pyridin-3-yl)-3-isopropylfuro[3,2-b]pyridine-5-carboxamide]	≤ 10	≤ 100	≤ 10
N[C@H]1CCCN(c2ccncc2NC(=O)c2ccc3occ(-c4c(F)cccc4F)c3n2)C1 [Example 37, (S)-N-(4-(3-Aminopiperidin-1-yl)pyridin-3-yl)-3-(2,6-difluorophenyl)furo[3,2-b]pyridine-5-carboxamide]	≤ 10	≤ 100	≤ 10
CCCc1cc2nc(C(=O)Nc3cnccc3N3C[C@@H](N)[C@H](O)[C@@H](C)C3)ccc2s1 [Example 38, N-(4-((3R,4R,5S)-3-Amino-4-hydroxy-5-methylpiperidin-1-yl)pyridin-3-yl)-2-propylthieno[3,2-b]pyridine-5-carboxamide]	≤ 10	100 to 1000	≤ 10
